Results: the NIST ThermoML archive (doi:10.1021/acs.jced.5b01023)

Assay: xn = mol fraction of the nth substance listed
Settings: for surface tension liquid-gas: Wilhelmy plates; for viscosity / mass density: 101 kPa, Liquid; for viscosity: Capillary tube (Ostwald / Ubbelohde) method; for mass density: Vibrating tube method

CC(=O)[O-].CCn1cc[n+](C)c1 [1-ethyl-3-methylimidazolium acetate] + CC(C)O
Settings | mass density [kg/m3] | surface tension liquid-gas [mN/m] | viscosity [mPa·s]
288.15 K, x1 = 0.1 | 852.68 | 23.6 | 5.55
288.15 K, x1 = 0.2 | 901.6 | 25.5 | 8.842
288.15 K, x1 = 0.3 | 941.78 | 27.5 | 14.85
288.15 K, x1 = 0.4 | 976.37 | 29.4 | 24.85
288.15 K, x1 = 0.5 | 1006.01 | 31.5 | 40.69
288.15 K, x1 = 0.5997 | – | 33 | –
288.15 K, x1 = 0.5998 | 1031.55 | – | 64.17
288.15 K, x1 = 0.7 | 1053.83 | 35.1 | 100.7
288.15 K, x1 = 0.7993 | 1072.97 | – | 147.9
288.15 K, x1 = 0.7994 | – | 37.7 | –
288.15 K, x1 = 0.9 | 1090.17 | 41.2 | 212.4
288.15 K, x1 = 1 | 1105.2 | 47.7 | 283.8
298.15 K, x1 = 0.1 | 845.22 | 23.2 | 4.171
298.15 K, x1 = 0.2 | 894.12 | 25.1 | 6.64
298.15 K, x1 = 0.3 | 934.95 | 26.9 | 10.84
298.15 K, x1 = 0.4 | 969.7 | 29 | 17.31
298.15 K, x1 = 0.5 | 999.47 | 31.2 | 26.86
298.15 K, x1 = 0.5997 | – | 32.6 | –
298.15 K, x1 = 0.5998 | 1025.12 | – | 40.4
298.15 K, x1 = 0.7 | 1047.51 | 34.5 | 58.42
298.15 K, x1 = 0.7993 | 1066.77 | – | 81.31
298.15 K, x1 = 0.7994 | – | 37.4 | –
298.15 K, x1 = 0.9 | 1084.05 | 40.9 | 109.9
298.15 K, x1 = 1 | 1099.03 | 47.1 | 139
308.15 K, x1 = 0.1 | 837.68 | 22.5 | 3.204
308.15 K, x1 = 0.2 | 887.04 | 24.6 | 5.142
308.15 K, x1 = 0.3 | 928.14 | 26.6 | 8.186
308.15 K, x1 = 0.4 | 963.07 | 28.3 | 12.6
308.15 K, x1 = 0.5 | 992.98 | 30.5 | 18.61
308.15 K, x1 = 0.5997 | – | 32.1 | –
308.15 K, x1 = 0.5998 | 1018.74 | – | 26.86
308.15 K, x1 = 0.7 | 1041.21 | 34.1 | 36.9
308.15 K, x1 = 0.7993 | 1060.56 | – | 49.32
308.15 K, x1 = 0.7994 | – | 37 | –
308.15 K, x1 = 0.9 | 1077.92 | 40.5 | 63.37
308.15 K, x1 = 1 | 1092.93 | 46.6 | 77.32
318.15 K, x1 = 0.1 | 829.99 | 21.8 | 2.511
318.15 K, x1 = 0.2 | 879.94 | 24.1 | 4.067
318.15 K, x1 = 0.3 | 921.35 | 26.1 | 6.344
318.15 K, x1 = 0.4 | 956.47 | 27.9 | 9.506
318.15 K, x1 = 0.5 | 986.52 | 29.9 | 13.61
318.15 K, x1 = 0.5997 | – | 31.6 | –
318.15 K, x1 = 0.5998 | 1012.39 | – | 18.87
318.15 K, x1 = 0.7 | 1034.96 | 33.7 | 25.08
318.15 K, x1 = 0.7993 | 1054.38 | – | 32.33
318.15 K, x1 = 0.7994 | – | 36.8 | –
318.15 K, x1 = 0.9 | 1071.81 | 40.2 | 40.36
318.15 K, x1 = 1 | 1086.86 | 46.1 | 47.37
328.15 K, x1 = 0.1 | 822.14 | 20.8 | 1.998
328.15 K, x1 = 0.2 | 872.8 | 23.5 | 3.272
328.15 K, x1 = 0.3 | 914.57 | 25.5 | 5.049
328.15 K, x1 = 0.4 | 949.91 | 27.4 | 7.378
328.15 K, x1 = 0.5 | 980.11 | 29.6 | 10.28
328.15 K, x1 = 0.5997 | – | 31.5 | –
328.15 K, x1 = 0.5998 | 1006.1 | – | 13.77
328.15 K, x1 = 0.7 | 1028.76 | 33.4 | 17.83
328.15 K, x1 = 0.7993 | 1048.25 | – | 22.39
328.15 K, x1 = 0.7994 | – | 36.4 | –
328.15 K, x1 = 0.9 | 1065.74 | 40 | 27.23
328.15 K, x1 = 1 | 1080.82 | 45.9 | 31.29
338.15 K, x1 = 0.1 | 814.08 | 20.1 | 1.617
338.15 K, x1 = 0.2 | 865.6 | 22.6 | 2.683
338.15 K, x1 = 0.3 | 907.78 | 25 | 4.086
338.15 K, x1 = 0.4 | 943.37 | 26.9 | 5.876
338.15 K, x1 = 0.5 | 973.74 | 29.1 | 8.019
338.15 K, x1 = 0.5997 | – | 30.7 | –
338.15 K, x1 = 0.5998 | 999.84 | – | 10.46
338.15 K, x1 = 0.7 | 1022.6 | 32.9 | 13.23
338.15 K, x1 = 0.7993 | 1042.17 | – | 16.22
338.15 K, x1 = 0.7994 | – | 36 | –
338.15 K, x1 = 0.9 | 1059.72 | 39.3 | 19.37
338.15 K, x1 = 1 | 1074.83 | 45.4 | 21.85
